Assay results published in ChEMBL document CHEMBL3872224, “Synthesis and cytotoxicity of novel artemisinin derivatives containing sulfur atoms” (Eur J Med Chem, 2016).

How the values were obtained:
[1] = Cytotoxicity against human A549 cells measured after 72 hrs by MTT assay; format: functional, cell-based; conditions: A549, 72 h
[2] = Cytotoxicity against human SGC7901 cells measured after 72 hrs by MTT assay; format: functional, cell-based; conditions: SGC-7901, 72 h
[3] = Cytotoxicity against human PC3 cells measured after 72 hrs by MTT assay; format: functional, cell-based; conditions: PC-3, 72 h
[4] = Cytotoxicity against human MDA-MB-435S cells measured after 72 hrs by MTT assay; format: functional, cell-based
[5] = Cytotoxicity against human L02 measured after 72 hrs by MTT assay; format: toxicity; conditions: L02 cells
A549 = assay: Selectivity index, ratio of IC50 for human L02 cells to IC50 for human A549 cells; format: functional
SGC-7901 = assay: Selectivity index, ratio of IC50 for human L02 cells to IC50 for human SGC7901 cells; format: functional

Compound	IC50 [1] [µM]	IC50 [2] [µM]	IC50 [3] [µM]	IC50 [4] [µM]	IC50 at 72 h [5] [µM]	Ratio IC50 (A549)	Ratio IC50 (SGC-7901)
CCCCSc1cccc(C(=O)O[C@@H]2O[C@@H]3O[C@]4(C)CC[C@H]5[C@H](C)[C@H](O)C[C@@H]([C@H]2C)[C@@]35OO4)c1	96.1	173	464				
COc1ccc(Sc2cccc(C(=O)O[C@@H]3O[C@@H]4O[C@]5(C)CC[C@H]6[C@H](C)[C@H](OC(=O)c7cccc(Sc8ccc(OC)cc8)c7)C[C@@H]([C@H]3C)[C@@]46OO5)c2)cc1	4.3	6	30.5	108	69.2	16.1	11.5
C[C@@H]1[C@H](OC(=O)c2cccc(SCc3ccccc3)c2)C[C@H]2[C@@H](C)[C@H](OC(=O)c3cccc(SCc4ccccc4)c3)O[C@@H]3O[C@]4(C)CC[C@@H]1[C@]32OO4	223			289			
COc1ccc(Sc2cccc(C(=O)O[C@@H]3O[C@@H]4O[C@]5(C)CC[C@H]6[C@H](C)[C@H](O)C[C@@H]([C@H]3C)[C@@]46OO5)c2)cc1	1.6	7.1	13	124	80.2	50.1	11.3
C[C@@H]1[C@H](O)C[C@H]2[C@@H](C)[C@H](OC(=O)c3cccc(SC4CCCCC4)c3)O[C@@H]3O[C@]4(C)CC[C@@H]1[C@]32OO4	33.3	553	204	29.6			
CCSc1cccc(C(=O)O[C@@H]2O[C@@H]3O[C@]4(C)CC[C@H]5[C@H](C)[C@H](O)C[C@@H]([C@H]2C)[C@@]35OO4)c1	1440			120			
CCSc1cccc(C(=O)O[C@@H]2O[C@@H]3O[C@]4(C)CC[C@H]5[C@H](C)[C@H](OC(=O)c6cccc(SCC)c6)C[C@@H]([C@H]2C)[C@@]35OO4)c1	44.4	74.2	30	112			
C[C@@H]1[C@H](O)C[C@H]2[C@@H](C)C(=O)O[C@@H]3O[C@]4(C)CC[C@@H]1[C@]32OO4	80.4			21.9	146	1.8	
C[C@@H]1[C@H](O)C[C@H]2[C@@H](C)[C@H](OC(=O)c3cccc(SCc4ccccc4)c3)O[C@@H]3O[C@]4(C)CC[C@@H]1[C@]32OO4	95		146	223			
CCCCSc1cccc(C(=O)O[C@@H]2O[C@@H]3O[C@]4(C)CC[C@H]5[C@H](C)[C@H](OC(=O)c6cccc(SCCCC)c6)C[C@@H]([C@H]2C)[C@@]35OO4)c1	107	85	115				
O=c1[nH]cc(F)c(=O)[nH]1 [FLUOROURACIL]	6.8			15.2	25.9	3.8	2.2
